The text below walks through data of patent publication US9855244B2, “O/W-emulsion-type topical pharmaceutical compositions containing a retinoid” (GALDERMA RESEARCH & DEVELOPMENT, priority 2012, dated 2018).

Series [1] in a line: Stability of Compound A in its principal oily solvents (determined by HPLC). To be noted: limits 95%-105% relative to T0. Format: physicochemical. Here is the method: (§1) In order to produce an oil-in-water (O/W) emulsion according to the invention, pre-formulation studies were carried out in order to reveal the excipients enabling good solubilization and also good stability of the active agent.
Stability of Compound A in its Principal Oily Solvents (Determined by HPLC)
(§2) The limits set for good stability are 95%-105% as relative percentage with respect to T0.

A short description of series [2]: Stability of Compound A in mixtures of excipients (solvent/surfactants), determined by HPLC. Format: physicochemical. The settings on record: limits 95%-105% relative to T0.
From the text: as §2

Series [3] can be described thus: "Single time" cutaneous penetration study, Franz cell, 16 h. Format: in vitro ADME. The settings on record: 16 h application, ex vivo human skin, FIG. 1; stratum corneum, epidermis, dermis, receiving liquid. The text has this:
The in vitro tests are developed on glass diffusion cells (termed “Franz cells”) or Teflon diffusion cells, in static or dynamic modes. The cells consist of two compartments, a donor compartment and a receiver compartment, separated by a membrane, the orientation of which may be vertical or horizontal.
The membranes have a surface area generally of between 1 and 4 cm^2; they can be synthetic (cellulose, polydimethylsiloxane, etc.), but animal or human skin biopsies are preferable.
Samples of receiver liquid can be taken, at regular times over the course of 24 hours, in order to enable the establishment of the kinetics of diffusion through the skin when this proves necessary. At the end of a maximum of 24 h of application, in the case of the pharmaceutical and cosmetic products, the Franz cells are dismantled, and the substance studied is quantified in the following compartments: formulation remains, stratum corneum, epidermidis, dermis, and receiver liquid. The mass balance can in this case be established, which makes it possible to quantify the “absorbed” doses (present in the receiver liquid), the doses “having penetrated” (present in the viable epidermidis and the dermis) and the “nonabsorbed” doses (present in the formulation remains and the stratum corneum).
Two types of cutaneous penetration studies on human skin ex vivo were therefore carried out. […]

The nature of series [4]: Pre-formulation studies: solubility of Compound A. To be noted: in the solvents customarily used in the fatty phases of topical emulsions. It counts as physicochemical. Here is the method: as §1

SMILES strings stand for the structures.

With `CC(C)(C)c1cc(-c2cc(-c3ccc(C(=O)O)cc3)ccc2OCCO)ccc1N1CCCC1` [Compound A, 3″-Tert-butyl-4′-(2-hydroxyethoxy)-4″-pyrrolidin-1-yl[1,1′;3′,1″]terphenyl-4-carboxylic acid], the Stability results in series [1] (Compound A 0.005% in Miglyol 812N (Caprylic/capric triglycerides), 40° C.) was “Stable/Ok 6 Months”; in series [1] (Compound A 0.005% in Sweet almond oil, 40° C.), “Stable/Ok 6 Months”; in series [1] (Compound A 0.05% in Arlacel 83V Pharma (Sorbitan Sesquioleate), 40° C.) it was “Stable/Ok 6 Months”; in series [1] (Compound A 0.05% in Arlamol E (PPG-15 stearyl ether), 40° C.), “Stable/Ok 6 Months”; in series [1] (Compound A 0.05% in Arlasolve DMI (Dimethyl Isosorbide)), “Unstable”; in series [1] (Compound A 0.05% in Benzyl alcohol), “Unstable”. The Stability results in series [1] (Compound A 0.05% in Brij 30 (Laureth-4)) was “Unstable”; in series [1] (Compound A 0.05% in Capryol 90 (Propylene glycol monocaprylate), 40° C.), “Stable/Ok 6 Months”; in series [1] (Compound A 0.05% in Dipropylene Glycol Care (Dipropylene glycol)), “Unstable”; in series [1] (Compound A 0.05% in Eutanol G (Octyldodecanol)), “Unstable”; in series [1] (Compound A 0.05% in Labrafil M1944CS (Apricot Kernel Oil PEG-6 Ester), 40° C.), “Stable/Ok 6 Months”; in series [1] (Compound A 0.05% in Lauroglycol FCC (Propylene glycol laurate), 40° C.), “Stable/Ok 6 Months”. The Stability results is “Unstable” in series [1] (Compound A 0.05% in Myritol PC (Propylene glycol dicaprylate/dicaprate)); “Stable/Ok 6 Months” in series [1] (Compound A 0.05% in Phenoxetol (Phenoxyethanol), 40° C.); “Unstable” in series [2] (Compound A 0.05% in Arlacel 165/Lauroglycol FCC); “Unstable” in series [2] (Compound A 0.05% in Cremophor EL/Labrafil M1944CS); “Unstable” in series [2] (Compound A 0.05% in Cremophor EL/Lauroglycol FCC); “Unstable” in series [2] (Compound A 0.05% in GlucateSS-Glucamate SSE-20/Arlamol E). Further, the Stability results in series [2] (Compound A 0.05% in Tween 80/Arlamol E), in series [2] (Compound A 0.2% in Cremophor EL/Labrafil M1944CS), in series [2] (Compound A 0.2% in Tween 80/Hexylene glycol) and in series [2] (Compound A 0.2% in Tween 80/Lauroglycol FCC) was “Unstable” throughout. For the same compound, the “Distribution profile of compound A in the various skin compartments” value in series [3] is “preferential localization and an accumulation of compound A in the stratum corneum and, less preferentially, in the epidermis”. In addition, in series [4], the Solubility entry was “low solubility”.
